Consider twelve molecules from patent US12522595B2, “Bicyclic ether O-glycoprotein-2-acetamido-2-deoxy-3-D-glucopyranosidase inhibitors” (BIOGEN MA INC., priority 2019, dated 2026).

Bounds are passed on as bounds.

Broadly, the IC50 is the concentration at which inhibition is half-maximal.

For this test, the target named is T1, Recombinant full length human OGA enzyme (Homo sapiens, UniProt O60502).
T1 construct: Recombinant full length human OGA enzyme was purchased from Origene; purchased Origene
T1 sequence (O60502 1-916): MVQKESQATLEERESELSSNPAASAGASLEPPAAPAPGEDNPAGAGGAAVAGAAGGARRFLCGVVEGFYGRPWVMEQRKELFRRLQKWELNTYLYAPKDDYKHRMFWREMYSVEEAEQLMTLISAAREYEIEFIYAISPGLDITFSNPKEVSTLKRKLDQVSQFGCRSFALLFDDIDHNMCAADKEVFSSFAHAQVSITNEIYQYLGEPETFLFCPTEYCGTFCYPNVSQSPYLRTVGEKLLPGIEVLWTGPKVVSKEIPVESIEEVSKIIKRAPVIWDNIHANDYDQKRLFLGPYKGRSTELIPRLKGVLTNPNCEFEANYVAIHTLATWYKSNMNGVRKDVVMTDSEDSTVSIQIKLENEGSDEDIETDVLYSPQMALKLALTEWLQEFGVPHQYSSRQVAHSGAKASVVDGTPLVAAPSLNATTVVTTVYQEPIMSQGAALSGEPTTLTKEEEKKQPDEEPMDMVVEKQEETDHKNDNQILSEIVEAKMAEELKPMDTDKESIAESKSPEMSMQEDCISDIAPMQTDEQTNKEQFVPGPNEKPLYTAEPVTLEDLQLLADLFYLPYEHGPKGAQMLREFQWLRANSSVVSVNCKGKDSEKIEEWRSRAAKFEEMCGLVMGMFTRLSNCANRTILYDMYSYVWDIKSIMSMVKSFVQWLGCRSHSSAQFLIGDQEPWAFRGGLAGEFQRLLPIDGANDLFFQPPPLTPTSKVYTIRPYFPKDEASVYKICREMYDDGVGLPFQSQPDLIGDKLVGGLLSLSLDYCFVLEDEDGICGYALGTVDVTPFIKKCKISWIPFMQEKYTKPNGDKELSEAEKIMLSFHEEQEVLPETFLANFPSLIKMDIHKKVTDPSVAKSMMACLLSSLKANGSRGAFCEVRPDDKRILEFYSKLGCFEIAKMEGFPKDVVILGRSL
As to the kind of experiment: OGA enzyme inhibition biochemical assay. To be noted: 1 nM OGA, 100 μM 4-MUGlcNAc (Km), pH 6.4, 90 minutes at room temperature, 10-point dose-response from 20 μM. A digest of the protocol: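 1 nM OGA with 100 μM 4-MUGlcNAc (Km) in McIlvaine buffer pH 6.4, 0.01% BSA, 90 min at room temperature; quenched with 3M glycine pH 10, fluorescence Ex 355/Em 460 nm. 10-point, 4-fold dilutions from 20 μM; 4-parameter variable-slope fit.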
Take `CC(=O)Nc1nc(F)c(CN2C[C@H](Oc3ccn4nc(C)nc4c3)C[C@@H]2C)s1` [Example 173, N-(4-fluoro-5-(((2S,4R)-2-methyl-4-((2-methyl-[1,2,4]triazolo[1,5-a]pyridin-7-yl)oxy)pyrrolidin-1-yl)methyl)thiazol-2-yl)acetamide]: the concentration for half-maximal inhibition (IC50) is under 1 nM.

In the case of `CC(=O)Nc1nc(F)c(CN2C[C@H](Oc3nnc4cnccn34)C[C@@H]2C)s1` [Example 174, N-(5-(((2S,4R)-4-([1,2,4]triazolo[4,3-a]pyrazin-3-yloxy)-2-methylpyrrolidin-1-yl)methyl)-4-fluorothiazol-2-yl)acetamide], the IC50 amounted to 2.6 nM.

`CC(=O)Nc1ncc(CN2C[C@H](Oc3cnc4nc(C)oc4c3)C[C@@H]2C)s1` [Example 168, N-(5-(((2S,4R)-2-Methyl-4-((2-methyloxazolo[4,5-b]pyridin-6-yl)oxy)pyrrolidin-1-yl)methyl)thiazol-2-yl)acetamide]: the IC50 was under 1 nM.

For `CC(=O)Nc1ncc(CN2C[C@H](Oc3ccc4ccnn4c3)C[C@@H]2C)s1` [Example 155, N-(5-(((2S,4R)-2-methyl-4-(pyrazolo[1,5-a]pyridin-6-yloxy)pyrrolidin-1-yl)methyl)thiazol-2-yl)acetamide], the IC50 is under 1 nM.

For the molecule `CC(=O)Nc1ncc(CN2C[C@H](Oc3ccc4cn(C)nc4c3)C[C@@H]2C)s1` [Example 52, N-(5-(((2S,4R)-2-methyl-4-((2-methyl-2H-indazol-6-yl)oxy)pyrrolidin-1-yl)methyl)thiazol-2-yl)acetamide], the IC50 was under 1 nM.

As to `CC(=O)Nc1nc(F)c(CN2C[C@H](Oc3nc4c(F)cccc4o3)C[C@@H]2C)s1` [Example 127, N-(4-fluoro-5-(((2S,4R)-4-((4-fluorobenzo[d]oxazol-2-yl)oxy)-2-methylpyrrolidin-1-yl)methyl)thiazol-2-yl)acetamide], the IC50 is under 1 nM.

In the case of `CC(=O)Nc1nc(F)c(CN2C[C@H](Oc3cccc4cn(C)nc34)C[C@@H]2C)s1` [Example 161, N-(4-fluoro-5-(((2S,4R)-2-methyl-4-((2-methyl-2H-indazol-7-yl)oxy)pyrrolidin-1-yl)methyl)thiazol-2-yl)acetamide], the IC50 was under 1 nM.

For the molecule `CC(=O)Nc1ncc(CN2C[C@H](Oc3cc4cnn(C)c4cn3)C[C@@H]2C)s1` [Example 88, N-(5-(((2S,4R)-2-methyl-4-((1-methyl-1H-pyrazolo[3,4-c]pyridin-5-yl)oxy)pyrrolidin-1-yl)methyl)thiazol-2-yl)acetamide], the IC50 was under 1 nM.

Turning to `CC(=O)Nc1ncc(CN2C[C@H](Oc3ccc4ccn(C)c4n3)C[C@@H]2C)s1` [Example 162, N-(5-(((2S,4R)-2-methyl-4-((1-methyl-1H-pyrrolo[2,3-b]pyridin-6-yl)oxy)pyrrolidin-1-yl)methyl)thiazol-2-yl)acetamide], the IC50 is under 1 nM.

On to `CC(=O)Nc1nc(F)c(CN2C[C@H](Oc3cnc4nncn4c3)C[C@@H]2C)s1` [Example 165, N-(5-(((2S,4R)-4-([1,2,4]triazolo[4,3-a]pyrimidin-6-yloxy)-2-methylpyrrolidin-1-yl)methyl)-4-fluorothiazol-2-yl)acetamide], for which the IC50 was under 1 nM.

Take `CC(=O)Nc1nc(F)c(CN2C[C@H](Oc3cccn4nccc34)C[C@@H]2C)s1` [Example 141, N-(4-fluoro-5-(((2S,4R)-2-methyl-4-(pyrazolo[1,5-a]pyridin-4-yloxy)pyrrolidin-1-yl)methyl)thiazol-2-yl)acetamide]: the IC50 is under 1 nM.

As to `CC(=O)Nc1ncc(CN2C[C@H](Oc3cccc4nccn34)C[C@@H]2C)s1` [Example 63, N-(5-(((2S,4R)-4-(imidazo[1,2-a]pyridin-5-yloxy)-2-methylpyrrolidin-1-yl)methyl)thiazol-2-yl)acetamide], the IC50 was under 1 nM.
